Values joined by “and” are separate entries in the source; they are usually repeats but may differ in a detail not shown here. Equal values may be shown once.
Assays:
mouse liver mitochondria = assay: ADP-stimulated rotenone-sensitive OCR in isolated mouse liver mitochondria; assay type: biochemical; set-up: rotenone sensitive OCR after ADP stimulation, individual replicates / rotenone sensitive OCR after ADP stimulation, average: unit not given here; settings: for rotenone sensitive OCR after ADP stimulation, % of control, average / rotenone sensitive OCR after ADP stimulation, average: average of replicates; for rotenone sensitive OCR after ADP stimulation, % of control, individual replicates / rotenone sensitive OCR after ADP stimulation, individual replicates: replicate 1-5
Protocol: (§1) Complex I and mitochondrial membranes were prepared from Bos taurus (bovine) heart. Intact mitochondria were isolated from rat liver and mouse heart and liver. Membranes were prepared from mouse heart mitochondria by 5 s bursts of sonication at 4 °C and collected by centrifugation (75,000 × g, 1 h).
(§2) Isolated mitochondria were monitored using a Seahorse XF96 extracellular flux analyzer at 32 °C. Mouse heart mitochondria, and mouse and rat liver mitochondria were plated into XF96 plates at 4 and 16–20 μg per well, respectively, in 220 mM mannitol, 70 mM sucrose, 10 mM KH2PO4, 5 mM MgCl2, 1 mM EGTA, 0.2 % fatty acid-free BSA, and 2 mM HEPES (pH 7.4 at 37 °C) with 10 mM glutamate and 10 mM malate and adhered by centrifugation (2000 × g, 20 min, 4 °C). The medium was supplemented with a further 5 mM glutamate and 5 mM malate and the mitochondria incubated for 15 min. Then two baseline readings were taken before the biguanides were added at IC50/5. Biguanides were allowed to accumulate for 15–20 min before respiration was […] by the addition of 4 mM ADP. Rotenone (2 μM) was added at the end of the experiment. Data from wells with failed port injections were excluded from the analyses. The RCR values (state III versus state IV respiration) were 3.4, 4.8, and 4.6 for mouse heart, rat liver, and mouse liver, respectively.

rat liver mitochondria = assay: ADP-stimulated rotenone-sensitive OCR in isolated rat liver mitochondria; assay type: biochemical; set-up: rotenone sensitive OCR after ADP stimulation, individual replicates / rotenone sensitive OCR after ADP stimulation, average: unit not given here; settings: for rotenone sensitive OCR after ADP stimulation, % of control, average / rotenone sensitive OCR after ADP stimulation, average: average of replicates; for rotenone sensitive OCR after ADP stimulation, % of control, individual replicates / rotenone sensitive OCR after ADP stimulation, individual replicates: replicate 1-5
Protocol: as §1, §2

permeabilized MDBK cells = assay: ADP-stimulated rotenone-sensitive OCR in permeabilized MDBK cells; assay type: cell-based, Bos taurus; set-up: rotenone sensitive OCR after ADP stimulation, average / rotenone sensitive OCR after ADP stimulation: unit not given here; settings: for inhibition of OCR: MDBK cells, 30 min, data used for Fig. 4c matrix concentration estimate; for rotenone sensitive OCR after ADP stimulation, % of control, average / rotenone sensitive OCR after ADP stimulation, average / rotenone sensitive OCR after ADP stimulation / rotenone sensitive OCR after ADP stimulation, % of control: MDBK permeabilised cells; for rotenone sensitive OCR after ADP stimulation, % of control, average / rotenone sensitive OCR after ADP stimulation, average: average of replicates; for rotenone sensitive OCR after ADP stimulation / rotenone sensitive OCR after ADP stimulation, % of control: individual replicates
Protocol: For permeabilized cell experiments, cells were seeded into XF96 plates at 0.9–1.1 × 10^4 per well and incubated for 48 h at 37 °C in 5 % CO2. Then, the growth medium was exchanged for assay buffer containing 3 nM plasma membrane permeabilizer ‘PMP’ (Seahorse Biosciences Inc.), 10 mM glutamate, 10 mM malate, 220 mM mannitol, 70 mM sucrose, 10 mM KH2PO4, 5 mM MgCl2, 1 mM EGTA, 0.2 % fatty acid-free bovine serum albumin (BSA), and 2 mM HEPES (pH 7.4 at 37 °C). […] The biguanides were allowed to accumulate for 30 min, then respiration was […] by the addition of 4 mM ADP. Rotenone was added (2 μM) at the end of the experiment.
(§3) Rotenone-sensitive OCRs were calculated by subtracting the rotenone-insensitive rates (determined at the end of the experiment). OCRs were normalized by dividing by the OCR recorded immediately prior to the addition of biguanide. For rate of uptake calculations, the OCRs at time points after biguanide addition were divided by the OCRs at the same time points in control experiments. Data from wells with failed port injections were excluded from the analyses. The respiratory control ratio (RCR) values (state III versus state IV respiration) were ~11 and ~6 for permeabilized MDBK and 143B cells, respectively.

MDBK cells = assay: Rotenone-sensitive oxygen consumption rate in intact MDBK cells; assay type: cell-based, Bos taurus; set-up: key to rotenone sensitive OCR after 40 mins of biguanide exposure / rotenone sensitive OCR after 40 mins of biguanide exposure, average: % of OCR recorded immediately before biguanide addition; settings: biguanide at IC50/10; for rotenone sensitive OCR after 6 hours of biguanide exposure, % control, average / rotenone sensitive OCR after 6 hours of biguanide exposure, average: MDBK cells; for rotenone sensitive OCR after 6 hours of biguanide exposure, average: OCR normalized to OCR immediately prior to biguanide addition; for rotenone sensitive OCR after 40 mins of biguanide exposure, % control, average / rotenone sensitive OCR after 40 mins of biguanide exposure, average / rotenone sensitive OCR after 40 mins of biguanide exposure / rotenone sensitive OCR after 40 mins of biguanide exposure, % control: MDBK intact cells; for rotenone sensitive OCR after 40 mins of biguanide exposure, % control, average / rotenone sensitive OCR after 40 mins of biguanide exposure, average: average of replicates; for rotenone sensitive OCR after 40 mins of biguanide exposure / rotenone sensitive OCR after 40 mins of biguanide exposure, % control: individual replicates
Protocol: 143B (CRL-8303 from ATCC), HepG2 (85011430 from The Health Protection Agency), and MDBK (CCL-22 from ATCC) cells were grown on Dulbecco’s modified Eagle’s medium (DMEM) supplemented with 10 % fetal bovine serum (FBS, Thermo Fisher Scientific) at 37 °C in 5 % CO2. All cells were confirmed as negative for mycoplasma.
Oxygen consumption rates (OCRs) were measured using a Seahorse XF96 extracellular flux analyzer at 37 °C. For intact cell measurements, 1.4 × 10^4 143B, HepG2, or MDBK cells were plated (per well) in DMEM containing 10 % FBS into Seahorse Bioscience Inc. XF96 plates and incubated for ~12 h at 37 °C in 5 % CO2. Then, the medium was exchanged for assay buffer containing DMEM, 4.5 g L^−1 glucose, 1 mM pyruvate, 32 mM NaCl, 2 mM GlutaMAX, 15 mg L^−1 phenol red, and 20 mM HEPES (pH 7.4 at 37 °C) and the cells placed in a CO2-free incubator at 37 °C for 30 min. Basal oxygen consumption rates were established before the addition of biguanides at one-tenth of their IC50 (IC50/10), and followed for ~ 6 h before the addition of rotenone (2 μM).
as §3

[1] = system: bovine mitochondrial membranes (complexes II-III-IV); assay: Succinate:O2 oxidoreduction (complexes II-III-IV, complex II assay) by bovine mitochondrial membranes; assay type: biochemical, Bos taurus; settings: biguanide concentrations set to the IC50 values for NADH:O2 on bovine membranes; control = 100.00; n = 3
Protocol: Assays were performed at 32 °C in a SpectraMax 96-well plate reader. NADH:decylubiquinone oxidoreduction by complex I at 0.5 μg mL^−1 was measured in 20 mM Tris-HCl (pH 7.2), 0.15 % soy bean asolectin (Avanti Polar Lipids), and 0.15 % 3-((3-cholamidopropyl)dimethylammonium)-1-propanesulfonate (CHAPS, Merck Chemicals Ltd), with 200 μM decylubiquinone and 200 μM NADH, and monitored using ε340–380(NADH) = 4.81 mM^−1 cm^−1 [23]. Catalysis was initiated by addition of NADH and maximal rates determined by linear regression. NADH:O2 oxidoreduction by membranes was measured similarly but using 5 μg mL^−1 membranes in 10 mM Tris-HCl (pH 7.4) and 250 mM sucrose using 200 μM NADH and supplemented with 0.15 mM horse heart cytochrome c (Sigma-Aldrich Ltd.). Succinate:O2 oxidoreduction was measured using 40 μg mL^−1 membranes in 5 mM succinate in 10 mM Tris-HCl (pH 7.4) as described previously. Control experiments included NaCl (to match the ionic strength) or DMSO, as appropriate.

| Compound | rotenone sensitive OCR after ADP stimulation, % of control, average (mouse liver mitochondria) | rotenone sensitive OCR after ADP stimulation, average (mouse liver mitochondria) | rotenone sensitive OCR after ADP stimulation, % of control, individual replicates (mouse liver mitochondria) | rotenone sensitive OCR after ADP stimulation, individual replicates (mouse liver mitochondria) | rotenone sensitive OCR after ADP stimulation, % of control, average (rat liver mitochondria) | rotenone sensitive OCR after ADP stimulation, average (rat liver mitochondria) | rotenone sensitive OCR after ADP stimulation, % of control, individual replicates (rat liver mitochondria) | rotenone sensitive OCR after ADP stimulation, individual replicates (rat liver mitochondria) | inhibition of OCR (permeabilized MDBK cells) | rotenone sensitive OCR after ADP stimulation, % of control, average (permeabilized MDBK cells) | rotenone sensitive OCR after ADP stimulation, average (permeabilized MDBK cells) | rotenone sensitive OCR after ADP stimulation, % of control, average (permeabilized MDBK cells; biguanide at IC50/5) | rotenone sensitive OCR after ADP stimulation, average (permeabilized MDBK cells; biguanide at IC50/5) | rotenone sensitive OCR after ADP stimulation (permeabilized MDBK cells; biguanide at IC50/5) | rotenone sensitive OCR after ADP stimulation, % of control (permeabilized MDBK cells; biguanide at IC50/5) | rotenone sensitive OCR after 6 hours of biguanide exposure, % control, average (MDBK cells) [% control] | rotenone sensitive OCR after 6 hours of biguanide exposure, average (MDBK cells) | rotenone sensitive OCR after 40 mins of biguanide exposure, % control, average (MDBK cells) [% control] | rotenone sensitive OCR after 40 mins of biguanide exposure, average (MDBK cells) | rotenone sensitive OCR after 40 mins of biguanide exposure (MDBK cells) | also measured |
| --- | --- | --- | --- | --- | --- | --- | --- | --- | --- | --- | --- | --- | --- | --- | --- | --- | --- | --- | --- | --- | --- |
| CC(C)N=C(N)N=C(N)N [compound 4, 1-(diaminomethylidene)-2-(propan-2-yl)guanidine] | 19.19 % of control | 6.66 | 21.16 % of control and 18.53 % of control and 17.88 % of control | 7.34 and 6.43 and 6.20 | 8.94 % of control | 2.45 | 10.19 % of control and 7.26 % of control and 8.19 % of control and 10.12 % of control | 2.79 and 1.99 and 2.25 and 2.77 | exceeded 90% | 3.16 % of control | 8.89 | 3.16 % of control | 8.89 | 14.20 and 41.21 and 15.97 and 1.99 and -24.18 and 20.17 and 9.00 and -7.21 | 5.04 % of control and 14.62 % of control and 5.67 % of control and 0.71 % of control and -8.58 % of control and 7.16 % of control and 3.19 % of control and -2.56 % of control | 18.29 | 18.34 | 93.72 | 95.36 | 95.78 and 95.98 and 96.95 and 94.61 and 94.86 and 94.00 | rotenone sensitive OCR after 40 mins of biguanide exposure, % control (MDBK cells): 94.13 % control and 94.32 % control and 95.28 % control and 92.98 % control and 93.22 % control and 92.38 % control; Complex II assay (succinate:O2 oxidoreduction), average [1]: 101.59 |
| NC(N)=NC(N)=NCc1ccccc1 [compound 3, 2-benzyl-1-(diaminomethylidene)guanidine] | 32.07 % of control | 11.13 | 34.06 % of control and 31.32 % of control and 34.05 % of control and 28.86 % of control | 11.82 (2×) and 10.87 and 10.01 | 24.02 % of control | 6.59 | 20.74 % of control and 19.21 % of control and 31.06 % of control and 25.09 % of control | 5.69 and 5.27 and 8.51 and 6.88 | exceeded 90% | 12.04 % of control | 33.92 | 12.04 % of control | 33.92 | 60.28 and 86.89 and -11.73 and 15.23 and 8.14 and 44.74 | 21.39 % of control and 30.83 % of control and -4.16 % of control and 5.40 % of control and 2.89 % of control and 15.88 % of control | 18.14 | 18.19 | 88.51 | 90.06 | 86.89 and 91.07 and 89.16 and 91.81 and 91.02 and 90.42 | accumulation into mitochondria (matrix concentration relative to extracellular medium) (permeabilized MDBK cells; permeabilized MDBK cells, after 30 min of biguanide exposure, IC50/5): more than 200 fold; rotenone sensitive OCR after 40 mins of biguanide exposure, % control (MDBK cells): 85.39 % control and 89.50 % control and 87.62 % control and 90.23 % control and 89.45 % control and 88.86 % control; Complex II assay (succinate:O2 oxidoreduction), average [1]: 97.37 |

Reference: PMC4977651, “Molecular features of biguanides required for targeting of mitochondrial respiratory complex I and activation of AMP-kinase” (BMC Biology, 2016)
